Experimental data published in patent US6734139B1, “N-aryl-uracile-based herbicides” (priority 1999, dated 2004).
“And” between values parts separate entries of the source, which are not always exact repeats. Identical values can stand only once.

How the values were obtained:
Assay type in all cases: in vivo
[1] = test system: Setaria; assay: Pre-emergence test (herbicidal action, Colby): Setaria
[2] = test system: Eriochloa; assay: Pre-emergence test (herbicidal action, Colby): Eriochloa
[3] = test system: Veronica; assay: Post-emergence test (herbicidal action, Colby): Veronica
Description: (§1) The expected action for a given combination of two herbicides can be calculated as follows (cf. COLBY, S. R.: “Calculating synergistic and antagonistic responses of herbicide combinations”, Weeds 15, Pages 20-22, 1967):
(§2) If the actual damage exceeds the calculated value, the combination has a superadditive effect, that is to say a synergistic effect.
(§3) To produce a suitable preparation of active compound, 1 part by weight of active compound is mixed with the stated amount of solvent, the stated amount of emulsifier is added and the concentrate is diluted with water to the desired concentration. Formulated products are dissolved in water and then diluted with water to the desired concentration.
(§4) The solutions of the other mixing components (active compounds or safeners) are prepared analogously. The separately prepared solutions of the various mixing components are then combined and, if appropriate, additional substances (formulation auxiliaries, additives, etc.) are added and, if appropriate, water is added to prepare the desired dilution.
(§5) After three weeks, the degree of damage to the plants is rated in % damage in comparison to the development of the untreated control. The figures denote
(§6) 0%=no effect/no damage (like untreated control)

[4] = test system: Echinochloa; assay: Pre-emergence test (herbicidal action, Colby): Echinochloa
[5] = test system: weeds; assay: Pre-emergence test (herbicidal action against weeds, Colby)
Description: as §1, §2
The theoretically expected activity for a given combination of three herbicides can likewise be found in the literature mentioned above.
(§7) Solvent: 2 to 3 parts by weight of acetone or N,N-dimethyl-formamide
(§8) Emulsifier: 1 part by weight of alkylaryl polyglycol ether
as §3, §4
(§9) Seeds of the test plants are sown in standard soil. After 24 hours, the soil is sprayed with the preparation of active compound such that the particular amount of active compound desired in each case is applied per unit area. The concentration of active compound in the spray liquor is chosen such that the particular amount of active compound desired in each case is applied in 500 litres of water per hectare. The containers with the test plants are kept in a greenhouse at controlled temperature and controlled illumination until evaluation.
as §5, §6

[6] = test system: Lolium; assay: Pre-emergence test (herbicidal action, Colby): Lolium; details: 8 g of a.i./ha
[7] = test system: Polygonum; assay: Post-emergence test (herbicidal action, Colby): Polygonum; details: 8 g of a.i./ha
[8] = test system: Matricaria; assay: Pre-emergence test (herbicidal action, Colby): Matricaria
[9] = test system: Datura; assay: Post-emergence test (herbicidal action, Colby): Datura
[10] = test system: Cyperus; assay: Pre-emergence test (herbicidal action, Colby): Cyperus
[11] = test system: Galium; assay: Pre-emergence test (herbicidal action, Colby): Galium; details: 8 g of a.i./ha
[12] = test system: Abutilon; assay: Post-emergence test (herbicidal action, Colby): Abutilon; details: 4 g of a.i./ha
[13] = test system: Ipomoea; assay: Pre-emergence test (herbicidal action, Colby): Ipomoea
[14] = test system: Cassia; assay: Pre-emergence test (herbicidal action, Colby): Cassia; details: 4 g of a.i./ha
[15] = test system: Stellaria; assay: Pre-emergence test (herbicidal action, Colby): Stellaria; details: 4 g of a.i./ha
[16] = test system: Solanum; assay: Post-emergence test (herbicidal action, Colby): Solanum
Description: as §1, §2, §3, §4, §5, §6

[17] = test system: Alopecurus; assay: Pre-emergence test (herbicidal action, Colby): Alopecurus
[18] = test system: Chenopodium; assay: Post-emergence test (herbicidal action, Colby): Chenopodium; details: 4 g of a.i./ha
[19] = test system: Viola; assay: Pre-emergence test (herbicidal action, Colby): Viola; details: 8 g of a.i./ha
[20] = test system: Matricaria; assay: Post-emergence test (herbicidal action, Colby): Matricaria; details: 4 g of a.i./ha
[21] = test system: maize; assay: Pre-emergence test in maize (crop plant compatibility); details: for Average damage (%): maize, pre-emergence, 0.1% Renex-36
Protocol: as §7, §8, §3, §4, §9, §6

[22] = test system: Datura; assay: Pre-emergence test (herbicidal action, Colby): Datura; details: 4 g of a.i./ha
[23] = test system: Abutilon; assay: Pre-emergence test (herbicidal action, Colby): Abutilon
[24] = test system: Digitaria; assay: Pre-emergence test (herbicidal action, Colby): Digitaria
[25] = test system: Polygonum; assay: Pre-emergence test (herbicidal action, Colby): Polygonum
[26] = test system: Bromus; assay: Pre-emergence test (herbicidal action, Colby): Bromus; details: 4 g of a.i./ha
[27] = test system: Chenopodium; assay: Pre-emergence test (herbicidal action, Colby): Chenopodium; details: 4 g of a.i./ha
[28] = single active compound at 4 g of a.i./ha

- Maize (7 days) ([21]; Table A28, 60 g of a.i./ha): 10%
- Maize (12 days) ([21]; Table A28, 60 g of a.i./ha): 20%
- Maize (21 days) ([21]; Table A28, 60 g of a.i./ha): 17%
- Maize (7 days) ([21]; Table A28, 90 g of a.i./ha): 20%
- Maize (21 days) ([21]; Table A28, 90 g of a.i./ha): 36%
- Maize (12 days) ([21]; Table A29, 60 g of a.i./ha): 20%
- Maize (12 days) ([21]; Table A29, 90 g of a.i./ha): 30%
- Maize (21 days) ([21]; Table A29, 90 g of a.i./ha): 36%
- Maize (7 days) ([21]; Table A31, 90 g of a.i./ha): 20%
- Maize (12 days) ([21]; Table A31, 90 g of a.i./ha): 30%
- Maize (21 days) ([21]; Table A31, 90 g of a.i./ha): 29%
Structure (SMILES): CCS(=O)(=O)N(C(=O)C(C)(C)C)c1cc(-n2c(=O)cc(C(F)(F)F)n(C)c2=O)c(F)cc1C#N [I-3, N-[2-cyano-4-fluoro-5-(3-methyl-2,6-dioxo-4-trifluoromethyl-3,6-dihydro-1(2H)-pyrimidinyl)-phenyl]-N-(2,2-dimethyl-propanoyl)-1-ethanesulphonamide]
- Setaria ([1]; 4 g of a.i./ha): 0%
- Setaria ([1]; 8 g of a.i./ha): 0%
- Eriochloa ([2]; 4 g of a.i./ha): 30%
- Eriochloa ([2]; 8 g of a.i./ha): 50%
- Veronica ([3]; 4 g of a.i./ha): 0%
- Veronica ([3]; 8 g of a.i./ha): 70%
- damage, Veronica [3, 28]: 0%
- damage, Veronica ([3]; single active compound at 8 g of a.i./ha): 70%
- Echinochloa ([4]; 4 g of a.i./ha): 0%
- Echinochloa ([4]; 8 g of a.i./ha): 0%
- Chenopodium (pre-emergence test) ([5]; Table 23, 4 g of a.i./ha): 80
- Galium (pre-emergence test) ([5]; Table 23, 4 g of a.i./ha): 0
- Lolium (pre-emergence test) ([5]; Table 23, 4 g of a.i./ha): 0
- Setaria (pre-emergence test) ([5]; Table 23, 4 g of a.i./ha): 0
- Eriochloa (pre-emergence test) ([5]; Table 23, 8 g of a.i./ha): 50
- Ipomoea (pre-emergence test) ([5]; Table 23, 8 g of a.i./ha): 30
- Setaria (pre-emergence test) ([5]; Table 23, 8 g of a.i./ha): 0
- Chenopodium (pre-emergence test) ([5]; Table A20, 4 g of a.i./ha): 80
- Datura (pre-emergence test) ([5]; Table A20, 4 g of a.i./ha): 0
- Ipomoea (pre-emergence test) ([5]; Table A20, 4 g of a.i./ha): 30
- Lolium (pre-emergence test) ([5]; Table A20, 4 g of a.i./ha): 0
- Datura (pre-emergence test) ([5]; Table A20, 8 g of a.i./ha): 30
- Galium (pre-emergence test) ([5]; Table A20, 8 g of a.i./ha): 20
- Ipomoea (pre-emergence test) ([5]; Table A20, 8 g of a.i./ha): 30
- Chenopodium (pre-emergence test) ([5]; Table A21, 4 g of a.i./ha): 80
- Datura (pre-emergence test) ([5]; Table A21, 4 g of a.i./ha): 0
- Polygonum (pre-emergence test) ([5]; Table A21, 4 g of a.i./ha): 40
- Ipomoea (pre-emergence test) ([5]; Table A21, 8 g of a.i./ha): 30
- Polygonum (pre-emergence test) ([5]; Table A21, 8 g of a.i./ha): 90
- Datura (pre-emergence test) ([5]; Table A22, 4 g of a.i./ha): 0
- Polygonum (pre-emergence test) ([5]; Table A22, 4 g of a.i./ha): 40
- Cassia (pre-emergence test) ([5]; Table A22, 8 g of a.i./ha): 50
- Cassia (pre-emergence test) ([5]; Table A24, 4 g of a.i./ha): 0
- Echinochloa (pre-emergence test) ([5]; Table A24, 4 g of a.i./ha): 30
- Lolium (pre-emergence test) ([5]; Table A24, 4 g of a.i./ha): 0
- Veronica (pre-emergence test) ([5]; Table A24, 4 g of a.i./ha): 30
- Echinochloa (pre-emergence test) ([5]; Table A24, 8 g of a.i./ha): 30
- Setaria (pre-emergence test) ([5]; Table A24, 8 g of a.i./ha): 30
- Bromus (pre-emergence test) ([5]; Table A25, 4 g of a.i./ha): 0
- Avena (pre-emergence test) ([5]; Table A25, 8 g of a.i./ha): 40
- Cyperus (pre-emergence test) ([5]; Table A25, 8 g of a.i./ha): 50
- Lolium (pre-emergence test) ([5]; Table A25, 8 g of a.i./ha): 60
- Avena (pre-emergence test) ([5]; Table A26, 4 g of a.i./ha): 40
- Digitaria (pre-emergence test) ([5]; Table A26, 4 g of a.i./ha): 30
- Echinochloa (pre-emergence test) ([5]; Table A26, 4 g of a.i./ha): 0
- Lolium (pre-emergence test) ([5]; Table A26, 4 g of a.i./ha): 30
- Matricaria (pre-emergence test) ([5]; Table A26, 4 g of a.i./ha): 30
- Setaria (pre-emergence test) ([5]; Table A26, 4 g of a.i./ha): 0
- Cassia (pre-emergence test) ([5]; Table A26, 8 g of a.i./ha): 30
- Echinochloa (pre-emergence test) ([5]; Table A26, 8 g of a.i./ha): 30
- Lolium (pre-emergence test) ([5]; Table A26, 8 g of a.i./ha): 30
- Matricaria (pre-emergence test) ([5]; Table A26, 8 g of a.i./ha): 70
- Setaria (pre-emergence test) ([5]; Table A26, 8 g of a.i./ha): 30
- Abutilon (pre-emergence test) ([5]; Table A27, 8 g of a.i./ha): 95
- Cassia (pre-emergence test) ([5]; Table A27, 8 g of a.i./ha): 30
- Polygonum (pre-emergence test) ([5]; Table A27, 8 g of a.i./ha): 20
- Lolium [6]: 20%
- Polygonum [7]: 60%
- Matricaria ([8]; 4 g of a.i./ha): 50%
- Matricaria ([8]; 8 g of a.i./ha): 90%
- Datura ([9]; 4 g of a.i./ha): 30%
- Datura ([9]; 8 g of a.i./ha): 60%
- Cyperus ([10]; 4 g of a.i./ha): 0%
- Cyperus ([10]; 8 g of a.i./ha): 30%
- Galium [11]: 30%
- Abutilon [12]: 0%
- Ipomoea ([13]; 4 g of a.i./ha): 30% and 50%
- Ipomoea ([13]; 8 g of a.i./ha): 30%
- Cassia [14]: 40%
- Stellaria [15]: 80%
- Solanum ([16]; 4 g of a.i./ha): 30%
- damage, Solanum [16, 28]: 30%
- Alopecurus ([17]; 4 g of a.i./ha): 0%
- Alopecurus ([17]; 8 g of a.i./ha): 0%
- Chenopodium [18]: 0%
- Viola [19]: 90%
- Matricaria [20]: 70%
- Average damage (%) ([21]; active compound 1 alone at 60 g of a.i./ha): 17%
- Average damage (%) ([21]; active compound 1 alone at 90 g of a.i./ha): 36%
- Datura [22]: 30%
- pest or weed control at 4 g/ha ([23]; 4 g of a.i./ha): 20%
- pest or weed control at 8 g/ha ([23]; 8 g of a.i./ha): 50%
- Digitaria ([24]; 4 g of a.i./ha): 0%
- Digitaria ([24]; 8 g of a.i./ha): 20%
- Polygonum ([25]; 4 g of a.i./ha): 0%
- Polygonum ([25]; 8 g of a.i./ha): 90%
- Bromus [26]: 0%
- Chenopodium [27]: 80%
